# Test system: IRF-1
# Assay: TNF-alpha-induced IRF-1 protein levels (Western blot)
# Format: cell-based, human
# Conditions: 5 mM; mean ± SD
# Description: (§1) Cell culture and treatment of HAEC: Human aortic endothelial cells (HAEC; Cambrex Bio Science Walkersville, Inc., Walkersville, Md.) are cultured in M199 supplemented with 8% FBS, 100 μg/ml heparin, 10 ng/ml endothelial growth factor, 100 μg/ml hypothalamus extract, 2 mM L-glutamine, 1% non-essential amino acids, 100 units/ml penicillin and 100 μg/ml streptomycin. HAEC are subcultured on gelatin pre-coated: 96-well tissue culture plates (Corning Incorporated; Corning, N.Y.) for viability assays and ELISA; 100-mm tissue culture dishes (BD Falcon; Franklin Lakes, N.J.) for Northern blot analyses, Western blot analyses and EMSA; 35-mm tissue culture dishes (Corning) for adhesion assays and on 24-well tissue culture plates for luciferase promoter assays (BD Falcon). All experiments are performed with confluent HAEC monolayers. Unless noted otherwise, HAEC are treated with 25 ng/ml TNF-α, in the absence or presence of C-10 or 0.25% DMSO (carrier control for C-10), for 2-24 hrs. The concentration of DMSO is held constant at 0.25% (unless indicated otherwise) for all of the C-10 conditions.
# Western blot analysis: Whole cell lysates are prepared in lysis buffer (150 mM NaCl, 1% IGEPAL CA-630, 50 mM Tris-HCL pH 8.0). 20 μg of lysates are then resolved on 4-12% Bis-Tris PAGE gels under denaturing conditions using the NuPAGE Bis-Tris System (Invitrogen; Carlsbad, Calif.). Proteins are transferred to nitrocellulose membranes, which are probed with IRF-1 antibody. Subsequent binding of HRP conjugated goat anti-rabbit Ab (sc-2054, Santa Cruz Biotechnology, Inc.) is detected using Lumigen PS-3 detection reagents (Amersham Pharmacia Biotech.; Piscataway, N.J.).
row,Compound,% INHIBITION of TNF-alpha-induced IRF-1 Protein levels [%]
1,1-Methyl-2-Thiomethyl-5(4)nitroimidazole,95 ± 12

# Same assay, conditions: 10 :M; mean ± SD
row,Compound,% INHIBITION of TNF-alpha-induced IRF-1 Protein levels [%]
1,"Cn1ccnc1S [Methimazole, 1-Methylimidazole-2-thiol]",0
2,1-Methyl-2-Thiomethyl-5(4)nitroimidazole,46 ± 15

# Same assay, conditions: 100 :M; mean ± SD
row,Compound,% INHIBITION of TNF-alpha-induced IRF-1 Protein levels [%]
1,"Cn1ccnc1S [Methimazole, 1-Methylimidazole-2-thiol]",0
2,1-Methyl-2-Thiomethyl-5(4)nitroimidazole,69 ± 10

# Same assay, conditions: Homo sapiens; 5 mM; mean ± SD
row,Compound,inhibition at 5000 µM [%]
1,"Cn1ccnc1S [Methimazole, 1-Methylimidazole-2-thiol]",17 ± 6

# Test system: VCAM-1
# Assay: TNF-alpha-induced VCAM-1 RNA levels in aortic endothelial cells (Northern blot)
# Format: cell-based, human
# Conditions: 5.0 mM; aortic endothelial cells; mean ± SD
# Description: as §1
# (§2) HAEC are washed with PBS and total RNA extracted using a commercial kit (RNeasy Mini Kit; Qiagen Inc.; Valencia, Calif.). 12 μg of total RNA per lane is resolved on 1% denaturing agarose gels containing 0.66M formaldehyde. Gels are capillary blotted on Nytran membranes (Schleicher and Schuell Inc.; Keene, N.H.), UV cross-linked, and used for hybridization. The probe for IRF-1 has been previously described (33). The G3PDH cDNA is from Clontech (Palo Alto, Calif.). […]; cDNAs are labeled with α-^32P-dCTP using the Ladderman Labeling Kit (Takara Biochemical Inc.; Berkeley, Calif.) (33). Northern blots are developed using a BAS 1500 Bioimaging Analyzer (Fuji Photo Film Co., Ltd. Medical Systems USA Inc.; Stanford, Calif.). Each experiment is replicated at least twice.
row,Compound,% INHIBITION of TNF-alpha-induced VCAM-1 RNA levels
1,"Sc1nc2ccccc2[nH]1 [2-mercaptobenzimidazole, 2-Mercaptobenzimidazole]",26 ± 10%
2,"Cn1ccnc1S [Methimazole, 1-Methylimidazole-2-thiol]",20 ± 10%
3,"Cn1ccn(C)c1=S [N-methylmethimazole, N-Methylmethimazole]",47 ± 12%
4,"Sc1ncc[nH]1 [2-mercaptoimidazole, 2-Mercaptoimidazole]",None
5,1-Methyl-2-Thiomethyl-5(4)nitroimidazole,92 ± 5%
6,"Cc1ccc2[nH]c(S)nc2c1 [2-mercapto-5-methylbenzimididazole, 2-Mercapto-5-methylbenzimidazole]",11 ± 7%

# Same assay, conditions: 10 :M; aortic endothelial cells; mean ± SD
row,Compound,% INHIBITION of TNF-alpha-induced VCAM-1 RNA levels
1,"Sc1nc2ccccc2[nH]1 [2-mercaptobenzimidazole, 2-Mercaptobenzimidazole]",0%
2,"Cn1ccnc1S [Methimazole, 1-Methylimidazole-2-thiol]",0%
3,"Cn1ccn(C)c1=S [N-methylmethimazole, N-Methylmethimazole]",0%
4,"Sc1ncc[nH]1 [2-mercaptoimidazole, 2-Mercaptoimidazole]",None
5,1-Methyl-2-Thiomethyl-5(4)nitroimidazole,34 ± 6%

# Same assay, conditions: 100 :M; aortic endothelial cells; mean ± SD
row,Compound,% INHIBITION of TNF-alpha-induced VCAM-1 RNA levels
1,"Sc1nc2ccccc2[nH]1 [2-mercaptobenzimidazole, 2-Mercaptobenzimidazole]",0%
2,"Cn1ccnc1S [Methimazole, 1-Methylimidazole-2-thiol]",0%
3,"Cn1ccn(C)c1=S [N-methylmethimazole, N-Methylmethimazole]",31 ± 10%
4,"Sc1ncc[nH]1 [2-mercaptoimidazole, 2-Mercaptoimidazole]",None
5,1-Methyl-2-Thiomethyl-5(4)nitroimidazole,83 ± 10%

# Test system: IRF-1
# Assay: TNF-alpha-induced IRF-1 RNA levels (Northern blot)
# Format: cell-based, human
# Conditions: 5 mM; mean ± SD
# Description: as §1, §2
row,Compound,% INIHIBITION of TNF-alpha-induced IRF-1 RNA levels [%]
1,"Cn1ccnc1S [Methimazole, 1-Methylimidazole-2-thiol]",27 ± 12
2,"Cn1ccn(C)c1=S [N-methylmethimazole, N-Methylmethimazole]",75 ± 14
3,"Sc1ncc[nH]1 [2-mercaptoimidazole, 2-Mercaptoimidazole]",0
4,1-Methyl-2-Thiomethyl-5(4)nitroimidazole,95 ± 12

# Same assay, conditions: 10 :M; mean ± SD
row,Compound,% INIHIBITION of TNF-alpha-induced IRF-1 RNA levels [%]
1,"Cn1ccnc1S [Methimazole, 1-Methylimidazole-2-thiol]",0
2,"Cn1ccn(C)c1=S [N-methylmethimazole, N-Methylmethimazole]",0
3,"Sc1ncc[nH]1 [2-mercaptoimidazole, 2-Mercaptoimidazole]",0
4,1-Methyl-2-Thiomethyl-5(4)nitroimidazole,26 ± 12

# Same assay, conditions: 100 :M; mean ± SD
row,Compound,% INIHIBITION of TNF-alpha-induced IRF-1 RNA levels [%]
1,"Cn1ccnc1S [Methimazole, 1-Methylimidazole-2-thiol]",0
2,"Cn1ccn(C)c1=S [N-methylmethimazole, N-Methylmethimazole]",34 ± 15
3,"Sc1ncc[nH]1 [2-mercaptoimidazole, 2-Mercaptoimidazole]",0
4,1-Methyl-2-Thiomethyl-5(4)nitroimidazole,64 ± 16

# Test system: VCAM-1 promoter
# Assay: TNF-alpha-induced VCAM-1 promoter activity, dual luciferase reporter assay in HAEC
# Format: cell-based, human
# Conditions: 5.0 mM; hVCAM-1(−228 to +12)-luciferase construct; mean ± SD
# Description: as §1
# Dual Luciferase Assay: Four human VCAM-1 promoter deletion constructs of different length, −1641/+12, −288/+12, −228/+12, −85/+12 bp are amplified by PCR from human genomic DNA. Each upstream primer contained a restriction endonuclease Mlu I site located at the 5′-end of the primer. The downstream primer corresponding to the +12 end contained a restriction endonuclease Xho I site at the 5′-end. The PCR products are digested by Mlu I and Xho I (New England Biolabs Inc., Beverly, Mass.) and ligated into a similarly digested pGL3 basic luciferase reporter vector (Promega, Madison, Wis.). Cells are transfected for 24 hrs. with 400 ng of indicated constructs, or pGL3 basic luciferase reporter vector as control, using GeneJuice transfection reagent (Novagen Inc., Madison, Wis.). All cells are also transfected with phRL-TK (Int−) vector (Promega), which contains wildtype Renilla luciferase (Rluc) as an “internal” transfection control. Luciferase assays are conducted with the Dual-Luciferase Reporter Assay System (Promega) on a Lumat LB 9507 tube luminometer. In every experiment, each condition is run in triplicate wells. Each experiment is replicated at least twice.
row,Compound,% INHIBITION of TNF-alpha-induced VCAM-1 promoter activity [%]
1,1-Methyl-2-Thiomethyl-5(4)nitroimidazole,58 ± 6

# Same assay, conditions: 10 :M; hVCAM-1(−228 to +12)-luciferase construct; mean ± SD
row,Compound,% INHIBITION of TNF-alpha-induced VCAM-1 promoter activity [%]
1,"Sc1nc2ccccc2[nH]1 [2-mercaptobenzimidazole, 2-Mercaptobenzimidazole]",0
2,"Cn1ccn(C)c1=S [N-methylmethimazole, N-Methylmethimazole]",6 ± 2
3,1-Methyl-2-Thiomethyl-5(4)nitroimidazole,29 ± 6
4,"Cc1cnc(S)n1C [5-methylmethimazole, 5-Methylmethimazole]",0

# Same assay, conditions: 100 :M; hVCAM-1(−228 to +12)-luciferase construct; mean ± SD
row,Compound,% INHIBITION of TNF-alpha-induced VCAM-1 promoter activity [%]
1,"Sc1nc2ccccc2[nH]1 [2-mercaptobenzimidazole, 2-Mercaptobenzimidazole]",0
2,"Cn1ccn(C)c1=S [N-methylmethimazole, N-Methylmethimazole]",44 ± 11
3,1-Methyl-2-Thiomethyl-5(4)nitroimidazole,54 ± 10
4,"Cc1cnc(S)n1C [5-methylmethimazole, 5-Methylmethimazole]",0

# Same assay, conditions: Homo sapiens; 5.0 mM; hVCAM-1(−228 to +12)-luciferase construct; mean ± SD
row,Compound,inhibition at 5000 µM [%]
1,"Sc1nc2ccccc2[nH]1 [2-mercaptobenzimidazole, 2-Mercaptobenzimidazole]",30 ± 4
2,"Cn1ccnc1S [Methimazole, 1-Methylimidazole-2-thiol]",0
3,"Cn1ccn(C)c1=S [N-methylmethimazole, N-Methylmethimazole]",31 ± 3
4,"Sc1ncc[nH]1 [2-mercaptoimidazole, 2-Mercaptoimidazole]",0
5,"Cc1cnc(S)n1C [5-methylmethimazole, 5-Methylmethimazole]",14 ± 8

# Source: patent US20050209295A1, “Methimazole derivatives and tautomeric cyclic thiones to inhibit cell adhesion” (priority 2004, published 2005)
